The test system of test [1] is Solanum lycopersicum αDOX (SEQ ID NO: 8), fatty acid alpha-dioxygenase, Q5WM33, N-terminal His-tag variant SEQ ID NO: 263 (comparative). Kind of test: Alpha-dioxygenase activity assay (oxygen consumption, TON). Format: biochemical. The conditions noted are these: fatty acid 100 µM, enzyme 6 ppm, 50 mM HEPES pH 9.0, 37°C; initial rate of oxygen consumption / enzyme concentration. The text has this: (§1) Solanum lycopersicum αDOX (SEQ ID NO: 8) is a fatty acid alpha-dioxygenase that converts fatty acids into the corresponding 2-hydroperoxy fatty acids and is included as a comparative example of the present invention. A codon optimized gene (SEQ ID NO: 262) encoding for an alpha-dioxygenase variant (SEQ ID NO: 263), including an N-terminal amino acid sequence containing a His-tag was designed and synthesized by Genscript. After gene synthesis, the protein was expressed and purified. In brief, the complete synthetic gene sequence was subcloned into a pET30a vector using the NdeI/HindIII cloning sites. For heterologous expression, Escherichia coli BL21 (DE3) cells were transformed with the recombinant plasmid and a single colony was inoculated into LB medium containing kanamycin (50 mg/L). A pre-starter culture was then inoculated into flasks containing Magic Media (Thermo Fisher, Catalog # K6803) supplemented with kanamycin (50 mg/L) and incubated at 16 °C for 72 h. At an OD600nm = 0.5 - 1.0, 5-aminolevulinic acid (final concentration 0.5 mM) was added. Cells were harvested by centrifugation at 5000 rpm and 4°C and the pellet was lysed using a bacterial cell lysis buffer (B-PER - Themo Fisher, Waltham, MA). After centrifugation, the supernatant was collected, and the protein was purified by one-step purification using HisPur™ Ni-NTA Spin Columns (Thermo Scientific, Catalog # 88226) and standard protocols known in the art. The protein was concentrated using a 10 kDa MW cutoff Amicon Ultra centrifugal filter unit (Millipore Sigma, Catalog# UFC901024), followed by desalting using a disposable PD-10 desalting column (GE Healthcare Life Sciences, Catalog# 17085101) and a buffer containing 50 mM Tris-HCl, 500 mM NaCl, and 10% Glycerol at pH 8.0. […]
(§2) Reactions with alpha-dioxygenases were performed as follows. […] The reaction was incubated for up to 10 minutes at 37°C with 200 rpm agitation and the conversion was monitored using an oxygen sensor. The TON (in s-1) were calculated as the ratio between the initial rate of oxygen consumption (in µM/s) and the concentration of enzyme (in µM). […]

Test [2] addresses T1, Oryza sativa αDOX (SEQ ID NO: 1), fatty acid alpha-dioxygenase, Q9M5J1, N-terminal His-tag variant SEQ ID NO: 249 (Oryza sativa subsp. japonica, UniProt Q2QRV3).
T1 construct: made in house; host or cells: Escherichia coli BL21 (DE3), pET30a
T1 sequence (Q2QRV3 1-618): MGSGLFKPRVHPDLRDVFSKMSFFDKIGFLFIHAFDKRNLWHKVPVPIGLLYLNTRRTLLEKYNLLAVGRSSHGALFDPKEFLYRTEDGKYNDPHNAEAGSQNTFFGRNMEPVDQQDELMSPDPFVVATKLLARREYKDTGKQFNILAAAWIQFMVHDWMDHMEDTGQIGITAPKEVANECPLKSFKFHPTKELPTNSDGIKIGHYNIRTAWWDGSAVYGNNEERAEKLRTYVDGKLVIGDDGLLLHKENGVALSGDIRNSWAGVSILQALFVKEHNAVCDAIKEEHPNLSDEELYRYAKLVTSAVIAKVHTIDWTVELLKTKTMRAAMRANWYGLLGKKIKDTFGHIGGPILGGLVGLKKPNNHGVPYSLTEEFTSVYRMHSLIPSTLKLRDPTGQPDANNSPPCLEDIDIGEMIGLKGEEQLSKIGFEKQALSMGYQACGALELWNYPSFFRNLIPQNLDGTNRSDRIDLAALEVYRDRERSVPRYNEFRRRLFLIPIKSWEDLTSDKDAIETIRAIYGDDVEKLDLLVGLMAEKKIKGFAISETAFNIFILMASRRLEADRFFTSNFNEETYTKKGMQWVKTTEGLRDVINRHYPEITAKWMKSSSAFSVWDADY
The description is as above. The conditions noted are these: fatty acid 100 µM, enzyme 6 ppm, 50 mM HEPES pH 9.0, 37°C; initial rate of oxygen consumption / enzyme concentration. Type of test: biochemical.
Description: as §1, with “Oryza sativa” for “Solanum lycopersicum”, “1)” for “8)”, “an” for “a comparative”, “248)” for “262)”, “249),” for “263),”
as §2

Consider `CCCCCCCCCCCCCCCCCC(=O)O` [Stearic Acid], for which the “Stearic Acid, TON” value in test [1] came out at 0.12 s⁻¹; in test [2], 8.02 s⁻¹.
In the case of `CCCCCCCC/C=C\CCCCCCCC(=O)O` [Oleic Acid], the “Oleic Acid, TON” value in test [1] was determined as 0.00 s⁻¹; in test [2], 5.54 s⁻¹.
In the case of `CCCCCCCCCCCCCCCC(=O)O` [Palmitic Acid], the entries for the “Palmitic Acid, TON” value in test [1] and in test [2] were 0.00 s⁻¹ and 20.58 s⁻¹, respectively.
